From ChEMBL document CHEMBL5316263, “Structure-Based Discovery of Selective Histone Deacetylase 8 Degraders with Potent Anticancer Activity” (J Med Chem, 2023) come the findings set out here.

Experiment [1] addresses T1, von Hippel-Lindau disease tumor suppressor/Histone deacetylase 8 (Homo sapiens) (UniProt Q9BY41+P40337). The experiment is described as follows: Protac activity at VHL/HDAC8 in human A549 cells assessed as degradation of HDAC8 at 200 nM measured after 20 hrs by Western blot analysis relative to control. It counts as cell-based.
Experiment [2] concerns the target T1, von Hippel-Lindau disease tumor suppressor/Histone deacetylase 8 (Homo sapiens). The experiment is described as follows: Protac activity at VHL/HDAC8 in human A549 cells assessed as degradation of HDAC8 at 2 uM measured after 20 hrs by Western blot analysis relative to control. It counts as cell-based.
Experiment [3] deals with T2, Protein cereblon/Histone deacetylase 8 (Homo sapiens) (UniProt Q9BY41+Q96SW2). Put plainly: Protac activity at CRBN/HDAC8 in human A549 cells assessed as degradation of HDAC8 at 200 nM measured after 20 hrs by Western blot analysis relative to control. It counts as cell-based. In general terms: A western blot detects proteins with antibodies after separation by electrophoresis.

The target of experiment [4] is T2, Protein cereblon/Histone deacetylase 8 (Homo sapiens). The experiment is described as follows: Protac activity at CRBN/HDAC8 in human A549 cells assessed as degradation of HDAC8 at 2 uM measured after 20 hrs by Western blot analysis relative to control. It counts as cell-based.
Experiment [5] concerns A549. Put plainly: Antiproliferative activity against human A549 cells assessed as inhibition of cell growth measured after 72 hrs by CCK-8 method. It counts as functional, cell-based. The conditions noted are these: for IC50: A549, 72 h; for Activity: dose <= 1.5 µM. On the technique in general: Formazan colour is commonly taken as a measure of viable cells.
In experiment [6] the target is Cereblon/Ikaros (Homo sapiens) (UniProt Q96SW2+Q13422). Put plainly: Protac activity at CRBN/IKZF1 in human A549 cells assessed as reduction in IKZF1 protein level at 10 uM by Western blot analysis. It counts as cell-based.
Experiment [7] deals with T2, Protein cereblon/Histone deacetylase 8 (Homo sapiens). The experiment is described as follows: Protac activity at CRBN/HDAC8 in human A549 cells assessed as reduction in HDAC8 protein level at 0.1 to 10 uM by Western blot analysis. It counts as cell-based. The conditions noted are these: dose 0.1-10 µM.
For experiment [8], the target named is Protein cereblon/Histone deacetylase 8 (Homo sapiens, UniProt Q96SW2+Q9BY41). Put plainly: Protac activity at CRBN/HDAC8 in human A549 cells assessed as degradation of HDAC8 incubated for 20 hrs by ELISA method. It counts as cell-based.
The target of experiment [9] is T2, Protein cereblon/Histone deacetylase 8 (Homo sapiens). Put plainly: Protac activity at CRBN/HDAC8 in human A549 cells assessed as maximum degradation at 10 uM incubated for 20 hrs by ELISA method relative to control. It counts as cell-based. For orientation: An ELISA detects its analyte on a solid surface through an enzyme-linked reagent.
Experiment [10] deals with A549. The experiment is described as follows: Inhibition of colony formation in human A549 cells assessed as reduction in cell proliferation at 2.5 to 10 uM measured after 7 to 10 days with media replenishment along with compound for every 3 days by crystal violet staining based analysis. It counts as functional. The conditions noted are these: dose 2.5-10 µM, time 7-10 day.

For experiment [11], the system named is HCT-116. The experiment is described as follows: Inhibition of colony formation in human HCT-116 cells assessed as reduction in cell proliferation at 2.5 to 10 uM measured after 7 to 10 days with media replenishment along with compound for every 3 days by crystal violet staining based analysis. It counts as functional. The conditions noted are these: dose 2.5-10 µM, time 7-10 day.

In experiment [12] the target is T1, von Hippel-Lindau disease tumor suppressor/Histone deacetylase 8 (Homo sapiens). The experiment is described as follows: Protac activity at VHL/HDAC8 in human A549 cells assessed as degradation of HDAC8 by Western blot analysis. It counts as cell-based. The conditions noted are these: dose 0.1-10 µM.
Experiment [13] deals with von Hippel-Lindau disease tumor suppressor/Histone deacetylase 1 (Homo sapiens) (UniProt Q13547+P40337). The experiment is described as follows: Protac activity at VHL/HDAC1 in human A549 cells assessed as degradation of HDAC1 at 0.1 to 10 uM by Western blot analysis. It counts as cell-based. The conditions noted are these: dose 0.1-10 µM.
Experiment [14] addresses von Hippel-Lindau disease tumor suppressor/Histone deacetylase 2 (Homo sapiens) (UniProt Q92769+P40337). Put plainly: Protac activity at VHL/HDAC2 in human A549 cells assessed as degradation of HDAC2 at 0.1 to 10 uM by Western blot analysis. It counts as cell-based. The conditions noted are these: dose 0.1-10 µM.
The target in experiment [15] is von Hippel-Lindau disease tumor suppressor/Histone deacetylase 3 (Homo sapiens) (UniProt O15379+P40337). The experiment is described as follows: Protac activity at VHL/HDAC3 in human A549 cells assessed as degradation of HDAC3 at 0.1 to 10 uM by Western blot analysis. The conditions noted are these: dose 0.1-10 µM. It counts as cell-based.
Experiment [16] deals with T3, Histone deacetylase 8 (Homo sapiens) (UniProt Q9BY41).
T3 sequence (whole entry): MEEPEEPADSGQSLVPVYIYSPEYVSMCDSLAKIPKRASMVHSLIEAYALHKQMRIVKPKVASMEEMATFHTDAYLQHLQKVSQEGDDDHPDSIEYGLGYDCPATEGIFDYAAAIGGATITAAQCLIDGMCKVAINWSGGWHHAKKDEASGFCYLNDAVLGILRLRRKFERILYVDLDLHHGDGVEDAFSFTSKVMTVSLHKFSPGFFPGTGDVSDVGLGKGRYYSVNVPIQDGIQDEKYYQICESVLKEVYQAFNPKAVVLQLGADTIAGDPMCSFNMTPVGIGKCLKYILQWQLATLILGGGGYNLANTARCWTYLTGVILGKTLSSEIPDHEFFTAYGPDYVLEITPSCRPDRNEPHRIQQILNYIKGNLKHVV
Put plainly: Induction of degradation in HDAC8 in human A549 cells at 200 nM measured after 20 hrs by Western blot analysis relative to control. It counts as cell-based.

Experiment [17] concerns the target T3, Histone deacetylase 8 (Homo sapiens). Put plainly: Induction of degradation in HDAC8 in human A549 cells at 2 microM measured after 20 hrs by Western blot analysis relative to control. It counts as cell-based.
The target is the same in experiment [18]. The experiment is described as follows: Induction of degradation in HDAC8 in human A549 cells at 10 uM incubated for 2 hrs by Western blot analysis. It counts as cell-based.

Activity calls are given as the source filed them. The rule behind the calls is not given here.

T2 sequence (Q96SW2 whole entry, looked up, one chain of several): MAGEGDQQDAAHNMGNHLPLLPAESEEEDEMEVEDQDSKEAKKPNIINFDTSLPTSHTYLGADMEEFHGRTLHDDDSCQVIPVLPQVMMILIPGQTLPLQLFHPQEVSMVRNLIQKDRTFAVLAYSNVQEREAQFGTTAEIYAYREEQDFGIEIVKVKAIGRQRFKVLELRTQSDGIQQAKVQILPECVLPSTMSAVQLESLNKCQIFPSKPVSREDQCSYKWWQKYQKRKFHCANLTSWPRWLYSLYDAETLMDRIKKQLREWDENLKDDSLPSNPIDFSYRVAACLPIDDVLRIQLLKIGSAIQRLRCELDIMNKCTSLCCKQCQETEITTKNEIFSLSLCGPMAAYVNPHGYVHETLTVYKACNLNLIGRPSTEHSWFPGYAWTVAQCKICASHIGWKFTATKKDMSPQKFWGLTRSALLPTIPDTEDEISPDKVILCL
Sequence of Protein cereblon/Histone deacetylase 8 (Q96SW2 whole entry, one chain of several): as the sequence (Q96SW2 whole entry, looked up, one chain of several) above
T1 sequence (P40337 whole entry, looked up, one chain of several): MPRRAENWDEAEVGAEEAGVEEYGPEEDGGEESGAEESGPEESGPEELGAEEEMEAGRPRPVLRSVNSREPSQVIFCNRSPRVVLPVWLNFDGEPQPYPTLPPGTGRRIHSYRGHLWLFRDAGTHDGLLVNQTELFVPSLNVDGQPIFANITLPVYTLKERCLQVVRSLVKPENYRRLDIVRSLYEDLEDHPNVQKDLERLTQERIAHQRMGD
Sequence of von Hippel-Lindau disease tumor suppressor/Histone deacetylase 1 (Homo sapiens) (P40337 whole entry, looked up): as the sequence (P40337 whole entry, looked up, one chain of several) above
Sequence of von Hippel-Lindau disease tumor suppressor/Histone deacetylase 1 (Homo sapiens) (Q13547 whole entry, looked up): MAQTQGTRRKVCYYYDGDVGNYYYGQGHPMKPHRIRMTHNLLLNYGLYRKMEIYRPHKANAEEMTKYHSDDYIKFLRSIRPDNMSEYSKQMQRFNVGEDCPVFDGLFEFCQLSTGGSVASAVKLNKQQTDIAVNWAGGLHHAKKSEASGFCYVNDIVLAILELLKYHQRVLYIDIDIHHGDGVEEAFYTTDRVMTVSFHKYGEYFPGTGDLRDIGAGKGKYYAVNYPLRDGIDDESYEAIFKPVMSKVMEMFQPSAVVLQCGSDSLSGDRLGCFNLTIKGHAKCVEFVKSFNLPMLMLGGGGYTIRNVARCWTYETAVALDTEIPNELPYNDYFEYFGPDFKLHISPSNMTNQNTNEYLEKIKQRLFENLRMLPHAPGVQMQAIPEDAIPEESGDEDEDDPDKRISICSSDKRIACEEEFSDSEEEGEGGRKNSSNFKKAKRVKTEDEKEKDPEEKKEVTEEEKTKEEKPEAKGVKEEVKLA
Sequence of von Hippel-Lindau disease tumor suppressor/Histone deacetylase 2 (Homo sapiens) (P40337 whole entry, looked up): as the sequence (P40337 whole entry, looked up, one chain of several) above
Sequence of von Hippel-Lindau disease tumor suppressor/Histone deacetylase 2 (Homo sapiens) (Q92769 whole entry, looked up): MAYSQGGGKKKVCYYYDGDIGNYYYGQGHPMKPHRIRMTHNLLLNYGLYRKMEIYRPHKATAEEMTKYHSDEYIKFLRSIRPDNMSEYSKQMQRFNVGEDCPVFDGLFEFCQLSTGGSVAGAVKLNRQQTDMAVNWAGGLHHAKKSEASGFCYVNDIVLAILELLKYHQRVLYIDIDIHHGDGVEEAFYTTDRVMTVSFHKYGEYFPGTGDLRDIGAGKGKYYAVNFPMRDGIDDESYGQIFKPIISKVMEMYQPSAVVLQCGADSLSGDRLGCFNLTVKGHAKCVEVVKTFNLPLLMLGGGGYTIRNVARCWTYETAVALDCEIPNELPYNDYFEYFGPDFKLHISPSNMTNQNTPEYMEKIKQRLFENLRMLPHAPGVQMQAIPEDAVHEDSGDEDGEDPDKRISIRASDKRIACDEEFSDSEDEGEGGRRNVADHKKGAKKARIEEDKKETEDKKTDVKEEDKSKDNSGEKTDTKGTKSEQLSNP
Sequence of von Hippel-Lindau disease tumor suppressor/Histone deacetylase 3 (Homo sapiens) (O15379 whole entry, looked up): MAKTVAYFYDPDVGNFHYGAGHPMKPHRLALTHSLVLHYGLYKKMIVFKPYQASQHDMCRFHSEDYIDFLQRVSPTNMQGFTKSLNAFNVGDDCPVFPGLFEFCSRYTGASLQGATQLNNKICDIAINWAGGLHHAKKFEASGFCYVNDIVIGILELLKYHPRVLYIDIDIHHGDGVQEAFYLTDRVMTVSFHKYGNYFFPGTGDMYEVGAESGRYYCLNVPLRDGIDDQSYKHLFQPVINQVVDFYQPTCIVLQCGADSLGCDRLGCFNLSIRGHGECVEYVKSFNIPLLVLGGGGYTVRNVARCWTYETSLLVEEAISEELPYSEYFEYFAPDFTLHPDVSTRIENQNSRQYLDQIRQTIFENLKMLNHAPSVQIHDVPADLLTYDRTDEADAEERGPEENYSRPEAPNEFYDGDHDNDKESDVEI
Sequence of von Hippel-Lindau disease tumor suppressor/Histone deacetylase 3 (Homo sapiens) (P40337 whole entry, looked up): as the sequence (P40337 whole entry, looked up, one chain of several) above

For `Cc1ncsc1-c1ccc([C@H](C)NC(=O)[C@@H]2C[C@@H](O)CN2C(=O)[C@@H](NC(=O)COCCOCCOCCOc2ccc(Cn3ccc4ccc(C(=O)NO)cc43)cc2)C(C)(C)C)cc1`, the values for the Activity in experiment [1] and in [2] were 26.7% and 50.2%, respectively.

For the compound `O=C1CCC(N2C(=O)c3cccc(NCc4cn(CCCOc5ccc(Cn6ccc7ccc(C(=O)NO)cc76)cc5)nn4)c3C2=O)C(=O)N1` (stereo unspecified), the Activity in experiment [3] was found to be 25.6%; in experiment [4], 69.4%.

In the case of `Cc1ncsc1-c1ccc([C@H](C)NC(=O)[C@@H]2C[C@@H](O)CN2C(=O)[C@@H](NC(=O)CCCOc2ccc(Cn3ccc4ccc(C(=O)NO)cc43)cc2)C(C)(C)C)cc1`, the Activity in experiment [1] turned out to be 15.9%; in experiment [2], 26.4%.

As to `Cc1ncsc1-c1ccc([C@H](C)NC(=O)[C@@H]2C[C@@H](O)CN2C(=O)[C@@H](NC(=O)COCCOCCOCCOCCOc2ccc(Cn3ccc4ccc(C(=O)NO)cc43)cc2)C(C)(C)C)cc1`, the Activity in experiment [1] amounted to 28.6%; in experiment [2], 72.9%.

For `O=C1CCC(N2C(=O)c3cccc(NCCc4cn(CCCCCOc5ccc(Cn6ccc7ccc(C(=O)NO)cc76)cc5)nn4)c3C2=O)C(=O)N1` (stereo unspecified), the Activity in [3] amounted to 28%; in [4], 78.4%.

As for `O=C1CCC(N2C(=O)c3cccc(NCc4cn(CCCCOc5ccc(Cn6ccc7ccc(C(=O)NO)cc76)cc5)nn4)c3C2=O)C(=O)N1` (stereo unspecified), the Activity is 30.6% in experiment [3], 83.6% in experiment [4] and “Dose-Dependent Effect” in experiment [5]. Also, in experiment [5], the half-maximal inhibitory concentration (IC50) is 7110 nM. Besides, the result in experiment [6] and in experiment [7] was Active. Also, in experiment [8], the EC50 turned out to be 470 nM. Moreover, in [9], the maximal response (Emax) amounted to 90.2%.

On to `O=C1CCC(N2C(=O)c3cccc(NCc4cn(CCOCCOCCOCCOCCOc5ccc(Cn6ccc7ccc(C(=O)NO)cc76)cc5)nn4)c3C2=O)C(=O)N1` (stereo unspecified), for which the Activity in [3] came out at 39.4%; in experiment [4] it was 80.2%.

With `Cc1ncsc1-c1ccc([C@H](C)NC(=O)[C@@H]2C[C@@H](O)CN2C(=O)[C@@H](NC(=O)COCCOCCOc2ccc(Cn3ccc4ccc(C(=O)NO)cc43)cc2)C(C)(C)C)cc1`, the Activity in [1] came out at 31.3%; in experiment [2], 75.3%.

`O=C1CCC(N2C(=O)c3cccc(NCc4cn(CCCCCOc5ccc(Cn6ccc7ccc(C(=O)NO)cc76)cc5)nn4)c3C2=O)C(=O)N1` (stereo unspecified): the Activity is 39.5% in experiment [3], 85.9% in experiment [4] and “Dose-Dependent Effect” in experiment [5]. Besides, the half-maximal inhibitory concentration (IC50) in experiment [5] stood at 12500 nM. Also, the result in experiment [6] and in experiment [7] was Active. Also, in [8], the EC50 turned out to be 620 nM. The Emax in experiment [9] came out at 90.2%.

As for `O=C1CCC(N2C(=O)c3cccc(NCCc4cn(CCOCCOc5ccc(Cn6ccc7ccc(C(=O)NO)cc76)cc5)nn4)c3C2=O)C(=O)N1` (stereo unspecified), the results for the Activity in [3] and in experiment [4] were 29.4% and 71.2%, respectively.

On to `Cc1ncsc1-c1ccc([C@H](C)NC(=O)[C@@H]2C[C@@H](O)CN2C(=O)[C@@H](NC(=O)COCCOc2ccc(Cn3ccc4ccc(C(=O)NO)cc43)cc2)C(C)(C)C)cc1`, for which the Activity worked out at 45.7% in experiment [1] and 91.3% in [2]. The inhibition result in [10] and in experiment [11] was “Active” in each case. Moreover, the outcome in [12] was Active. Besides, the outcome in experiment [13], in experiment [14] and in experiment [15] was inactive.

`Cc1ncsc1-c1ccc([C@H](C)NC(=O)[C@@H]2C[C@@H](O)CN2C(=O)[C@@H](NC(=O)CCCCCCOc2ccc(Cn3ccc4ccc(C(=O)NO)cc43)cc2)C(C)(C)C)cc1`: the figures for the Activity in experiment [1] and in experiment [2] were 29.8% and 73.6%, respectively.

On to `O=C1CCC(N2C(=O)c3cccc(NCc4cn(CCOCCOCCOc5ccc(Cn6ccc7ccc(C(=O)NO)cc76)cc5)nn4)c3C2=O)C(=O)N1` (stereo unspecified), for which the Activity was 42.5% in experiment [3] and 70.8% in experiment [4].

Turning to `O=C1CCC(N2C(=O)c3cccc(NCc4cn(CCOCCOCCOCCOc5ccc(Cn6ccc7ccc(C(=O)NO)cc76)cc5)nn4)c3C2=O)C(=O)N1` (stereo unspecified), the Activity in experiment [3] stood at 36.5%; in experiment [4] it was 65.9%.

As for `Cc1ncsc1-c1ccc([C@H](C)NC(=O)[C@@H]2C[C@@H](O)CN2C(=O)[C@@H](NC(=O)CCCCOc2ccc(Cn3ccc4ccc(C(=O)NO)cc43)cc2)C(C)(C)C)cc1`, the Activity amounted to 34.6% in experiment [1] and 75.7% in experiment [2].

Regarding `Nc1cccc2c1C(=O)N(C1CCC(=O)NC1=O)C2=O` (stereo unspecified), the Activity is 9.5% in [16] and 12.8% in [17]. The outcome in experiment [18] was inactive.

As to `O=C1CCC(N2C(=O)c3cccc(NCc4cn(CCCCCCOc5ccc(Cn6ccc7ccc(C(=O)NO)cc76)cc5)nn4)c3C2=O)C(=O)N1` (stereo unspecified), the Activity stood at 28.5% in experiment [3] and 59.7% in experiment [4]. For the same compound, the half-maximal effective concentration (EC50) in experiment [8] came to 580 nM.

Regarding `Cc1ncsc1-c1ccc([C@H](C)NC(=O)[C@@H]2C[C@@H](O)CN2C(=O)[C@@H](NC(=O)CCCCCOc2ccc(Cn3ccc4ccc(C(=O)NO)cc43)cc2)C(C)(C)C)cc1`, the Activity in experiment [1] turned out to be 27.3%; in experiment [2], 51.4%.

By IC50 is commonly meant the midpoint of a concentration-inhibition curve. As a reminder, the EC50 is the concentration that produces a half-maximal response. The Emax is the maximal effect, on the per cent scale that the assay sets.
